The values that follow come from patent publication US9370522B2, “Heterocyclic compounds for the inhibition of PASK” (BioEnergenix, LLC, priority 2009, dated 2016).

SMILES strings stand for the structures.

T2 sequence (Q96RG2 879-1323, stated change not applied): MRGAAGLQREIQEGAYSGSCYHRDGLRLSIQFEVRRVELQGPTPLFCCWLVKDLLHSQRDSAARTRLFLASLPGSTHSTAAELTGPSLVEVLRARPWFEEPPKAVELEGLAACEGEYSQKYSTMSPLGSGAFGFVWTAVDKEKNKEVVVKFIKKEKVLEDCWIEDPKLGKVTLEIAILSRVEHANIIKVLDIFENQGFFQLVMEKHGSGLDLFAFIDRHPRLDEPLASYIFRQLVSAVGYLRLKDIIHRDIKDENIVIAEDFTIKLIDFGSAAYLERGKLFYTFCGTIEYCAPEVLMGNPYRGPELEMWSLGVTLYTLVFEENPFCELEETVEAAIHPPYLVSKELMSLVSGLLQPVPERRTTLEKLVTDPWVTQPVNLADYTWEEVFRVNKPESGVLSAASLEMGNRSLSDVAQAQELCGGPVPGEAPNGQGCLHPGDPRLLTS

In one assay the target is T1, hPASK Kinase Domain (Homo sapiens, UniProt Q96RG2).
T1 construct: made in house; host or cells: insect cells
T1 sequence (Q96RG2 999-1251 limits assumed): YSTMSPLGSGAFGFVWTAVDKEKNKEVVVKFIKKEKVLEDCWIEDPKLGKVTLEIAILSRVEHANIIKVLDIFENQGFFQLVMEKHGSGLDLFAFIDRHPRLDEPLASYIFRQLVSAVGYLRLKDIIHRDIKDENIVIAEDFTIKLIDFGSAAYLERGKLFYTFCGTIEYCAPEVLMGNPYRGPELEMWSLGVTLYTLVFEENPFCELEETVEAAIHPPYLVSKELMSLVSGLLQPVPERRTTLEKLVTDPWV
Kind of assay: Biochemical Assay for hPASK Activity (Kinase-Glo Luminescent Kinase Assay), kinase domain. The note with it: Table 1, second part (Examples 33-59). As for the experimental part:
The assay for purified hPASK activity utilizes the Kinase-Glo Luminescent Kinase Assay (Promega), which quantifies the amount of ATP remaining in solution following kinase reaction. The assay is carried out in a 96-well plate format and is performed by adding a volume of Kinase-Glo Reagent (Promega, catalog #V3771) equal to the volume of solution in the well of a completed kinase reaction. Kinase-Glo reagent contains Luciferase and its substrate. After addition to a kinase reaction it allows to measure luminescence. The amount of ATP left in solution at the time of Kinase-Glo Plus addition is directly proportional to the luminescence that is measured in each well, and inversely correlated with kinase activity.
Purified hPASK from insect cells (0.02 μg) is added to a 50 μL reaction mix containing 40 mM Hepes (pH 7.0), 100 mM KCl, 5 mM MgCl2, 1 mM DTT and 1 ug of MBP protein. Inhibitory compounds are then added and the mixture is incubated for 10 min at 25° C. before adding 5 μL of ATP (at desired concentration). The reaction is allowed to proceed at 25° C. for 1 hour before adding 50 μL of Kinase-Glo reagent. The luminescence is measured as soon as 10 minutes after Kinase-Glo reagent is added.
Background: Kinase-Glo measures the ATP left after a reaction by luminescence.
The IC50 is the concentration needed to halve the response being measured. In turn, `CN(c1ccc(-c2nc3cc(C(=O)O)ccc3nc2-c2ccccc2)cc1)S(C)(=O)=O` [Example 51, 3-(4-(N-Methylmethylsulfonamido)phenyl)-2-phenylquinoxaline-6-carboxylic acid] returned an IC50 not above 10 µM.
As for `CCc1ccc(-c2nc3ccc(C(=O)NOC)cc3nc2-c2ccc(CC)cc2)cc1` [Example 59, 2,3-Bis(4-ethylphenyl)-N-methoxyquinoxaline-6-carboxamide], the half-maximal inhibitory concentration (IC50) was not above 10 µM.
The same measure, in the same setting: the same measure for `O=C(O)c1cccc(-c2nc3cc(C(=O)O)ccc3nc2-c2ccccc2)c1` [Example 50, 3-(3-Carboxyphenyl)-2-phenylquinoxaline-6-carboxylic acid]: not above 10 µM.

The next assay has as its target T2, PASK (UniProt #Q96RG2; human recombinant N-terminal GST tagged construct, residues 879-1323) (Homo sapiens, UniProt Q96RG2).
T2 construct: N-terminal GST tagged construct, residues 879-1323; GST (N); made in house; host or cells: insect cells
Kind of assay: 33P-ATP radiometric PASK kinase assay (P81 phosphocellulose, scintillation counting). It counts as biochemical. The note with it: Table 2, Myelin Basic Protein 20 μM, 120 min room temperature, average of all trials, read-out: IC50 Kinase Domain. As to the method: Purified PASK (UniProt #Q96RG2; human recombinant N-terminal GST tagged construct, residues 879-1323) from insect cells (final concentration 5 nM) is added to freshly prepared Base Reaction Buffer containing 20 mM Hepes (pH 7.5), 10 mM MgCl2, 1 mM EGTA, 0.02% Brij35, 0.02 mg/ml BSA, 0.1 mM Na3VO4, 2 mM DTT, 1% DMSO and Myelin Basic Protein (20 μM final). Test compounds in DMSO are then added and the mixture, followed by delivery of ^33P-ATP (specific activity 0.01 μCi/μl final) to initiate the reaction. The kinase reaction is incubated for 120 min at room temperature. The entire reaction mixture is washed through onto a P81 Phosphocellulose paper and washed three times for 10 minutes in 75 mM phosphoric acid and once in methanol prior to drying and scintillation counting. When the assay was repeated for a given compound, the activity data is based on the average of all trials.
For `O=C(O)c1ccc(-c2nc3cc(C(=O)O)ccc3nc2-c2ccccc2)cc1` [Example 35, 3-(4-Carboxyphenyl)-2-phenylquinoxaline-6-carboxylic acid], the IC50 is not below 10 µM.
The same measure, in the same setting: in the case of `O=C(O)c1ccc2nc(-c3ccccc3)c(-c3ccoc3)nc2c1` [Example 42, 3-(Furan-3-yl)-2-phenylquinoxaline-6-carboxylic acid] it was not above 10 µM; in that of `COc1ccc(-c2nc3cc(C(=O)O)ccc3nc2-c2ccccc2)c(OC)c1` [Example 45, 3-(2,4-Dimethoxyphenyl)-2-phenylquinoxaline-6-carboxylic acid], not above 10 µM.
On to `O=C(O)c1ccc2nc(-c3ccccc3)c(-c3ccc(O)cc3)nc2c1` [Example 44, 3-(4-Hydroxyphenyl)-2-phenylquinoxaline-6-carboxylic acid], for which the IC50 was not above 10 µM.
Still for that read-out and setting: the same measure for `COc1ccc(-c2nc3cc(O)c(C(=O)O)cc3nc2-c2ccc(OC)cc2)cc1` [Example 27, 7-Hydroxy-2,3-bis(4-methoxyphenyl)quinoxaline-6-carboxylic acid]: not above 10 µM; for `O=C(O)c1ccc2nc(-c3ccccc3)c(-c3cccc(F)c3)nc2c1` [Example 38, 3-(3-Fluorophenyl)-2-phenylquinoxaline-6-carboxylic acid]: not above 10 µM; for `Cc1ccc(-c2nc3cc(C(=O)O)ccc3nc2-c2ccccc2)cc1` [Example 15, 2-Phenyl-3-p-tolylquinoxaline-6-carboxylic acid]: not above 10 µM.
Same read-out and setting: the same measure for `O=C(O)c1ccc2nc(-c3ccccc3)c(-c3ccc(Cl)cc3)nc2c1` [Example 30, 3-(4-Chlorophenyl)-2-phenylquinoxaline-6-carboxylic acid]: not above 10 µM.
On the same count and under the same terms, the same measure for `Cc1cccc(-c2nc3cc(C(=O)O)ccc3nc2-c2ccccc2)c1` [Example 40, 2-Phenyl-3-m-tolylquinoxaline-6-carboxylic acid]: not above 10 µM.
`O=C(O)c1ccc2nc(-c3ccccc3)c(-c3ccc(C(F)(F)F)cc3)nc2c1` [Example 13, 2-Phenyl-3-(4-(trifluoromethyl)phenyl)quinoxaline-6-carboxylic acid]: the IC50 is not above 10 µM.
Consider `CCc1ccc(-c2nc3cc(C(=O)O)ccc3nc2-c2ccccc2)cc1` [Example 32, 3-(4-Ethylphenyl)-2-phenylquinoxaline-6-carboxylic acid], for which the IC50 is not above 10 µM.
Same read-out and setting: in the case of `O=C(O)c1ccc2nc(-c3ccccc3)c(-c3ccc(CO)cc3)nc2c1` [Example 34, 3-(4-(Hydroxymethyl)phenyl)-2-phenylquinoxaline-6-carboxylic acid] it was not above 10 µM.
As for `COc1ccc(-c2nc3cc(C(=O)O)ccc3nc2-c2ccccc2)cc1` [Example 23, 3-(4-Methoxyphenyl)-2-phenylquinoxaline-6-carboxylic acid], the half-inhibitory concentration (IC50) is not above 10 µM.
Still for that read-out and setting: in the case of `O=C(O)c1ccc2nc(-c3ccccc3)c(-c3ccc(Br)cc3)nc2c1` [Example 31, 3-(4-Bromophenyl)-2-phenylquinoxaline-6-carboxylic acid] it was not above 10 µM; in that of `CCc1nc2cc(C(=O)O)ccc2nc1-c1ccccc1` [Example 48, 3-Ethyl-2-phenylquinoxaline-6-carboxylic acid], not below 10 µM; in that of `Cc1nc2cc(C(=O)O)ccc2nc1-c1ccccc1` [Example 14, 3-Methyl-2-phenylquinoxaline-6-carboxylic acid], not below 10 µM.
Same read-out and setting: the same measure for `O=C(O)c1cc2nc(-c3ccc(Cl)cc3)c(-c3ccc(Cl)cc3)nc2cc1O` [Example 26, 2,3-Bis(4-chlorophenyl)-7-hydroxyquinoxaline-6-carboxylic acid]: not below 10 µM.
Same read-out and setting: in the case of `O=C(O)c1ccc2nc(-c3ccccc3)c(-c3ccncc3)nc2c1` [Example 21, 2-Phenyl-3-(pyridin-4-yl)quinoxaline-6-carboxylic acid] it was not above 10 µM; in that of `O=C(O)c1cc2nc(-c3ccc(O)cc3)c(-c3ccc(O)cc3)nc2cc1O` [Example 28, 7-Hydroxy-2,3-bis(4-hydroxyphenyl)quinoxaline-6-carboxylic acid], not above 10 µM; in that of `O=C(O)c1ccc2nc(-c3ccccc3)c(-c3cccc(O)c3)nc2c1` [Example 46, 3-(3-Hydroxyphenyl)-2-phenylquinoxaline-6-carboxylic acid], not above 10 µM.
As to `O=C(O)c1ccc2nc(-c3ccccc3)c(-c3ccc4c(c3)OCO4)nc2c1` [Example 20, 3-(Benzo[d][1,3]dioxol-5-yl)-2-phenylquinoxaline-6-carboxylic acid], the IC50 was not above 10 µM.
As to `O=C(O)c1cc2nc(-c3ccc(F)cc3)c(-c3ccc(F)cc3)nc2cc1O` [Example 25, 2,3-Bis(4-fluorophenyl)-7-hydroxyquinoxaline-6-carboxylic acid], the IC50 was not above 10 µM.
As for `O=C(O)c1cc2nc(-c3cccc(O)c3)c(-c3cccc(O)c3)nc2cc1O` [Example 29, 7-Hydroxy-2,3-bis(3-hydroxyphenyl)quinoxaline-6-carboxylic acid], the half-maximal inhibitory concentration (IC50) was not below 10 µM.
As to `O=C(O)c1ccc2nc(-c3ccccc3)c(-c3ccc(-c4ccccc4)cc3)nc2c1` [Example 47, 2-Phenyl-3-(4-phenyl-phenyl)quinoxaline-6-carboxylic acid], the IC50 is not above 10 µM.
The same measure, in the same setting: in the case of `O=C(O)c1ccc2nc(-c3ccccc3)c(-c3ccc([N+](=O)[O-])cc3)nc2c1` [Example 41, 3-(4-Nitrophenyl)-2-phenylquinoxaline-6-carboxylic acid] it was not above 10 µM; in that of `O=C(O)c1ccc2nc(-c3ccccc3)c(-c3cccc4ccccc34)nc2c1` [Example 19, 3-(Naphthalene-1-yl)-2-phenylquinoxaline-6-carboxylic acid], not above 10 µM; in that of `O=C(O)c1ccc2nc(-c3ccco3)c(-c3ccccc3)nc2c1` [Example 12, 2-(Furan-2-yl)-3-phenylquinoxaline-6-carboxylic acid], not above 10 µM.
Same read-out and setting: the same measure for `COc1ccc(-c2nc3cc(C(=O)O)ccc3nc2-c2ccccc2)cc1OC` [Example 17, 3-(3,4-Dimethoxyphenyl)-2-phenylquinoxaline-6-carboxylic acid]: not above 10 µM.
Still for that read-out and setting: in the case of `N#Cc1ccc(-c2nc3cc(C(=O)O)ccc3nc2-c2ccccc2)cc1` [Example 22, 3-(4-Cyanophenyl)-2-phenylquinoxaline-6-carboxylic acid] it was not above 10 µM.
Regarding `CCOc1ccc(-c2nc3cc(C(=O)O)ccc3nc2-c2ccccc2)cc1` [Example 16, 3-(4-Ethoxyphenyl)-2-phenylquinoxaline-6-carboxylic acid], the IC50 was not above 10 µM.
The same measure, in the same setting: in the case of `O=C(O)c1ccc2nc(-c3ccccc3)c(-c3ccccc3-c3ccccc3)nc2c1` [Example 24, 3-(Biphenyl-2-yl)-2-phenylquinoxaline-6-carboxylic acid] it was not below 10 µM; in that of `O=C(O)c1ccc2nc(-c3ccccc3)c(-c3ccc(OC(F)(F)F)cc3)nc2c1` [Example 36, 2-Phenyl-3-(4-(trifluoromethoxy)phenyl)quinoxaline-6-carboxylic acid], not above 10 µM.
Same read-out and setting: in the case of `Cc1ccccc1-c1nc2cc(C(=O)O)ccc2nc1-c1ccccc1` [Example 39, 2-Phenyl-3-o-tolylquinoxaline-6-carboxylic acid] it was not above 10 µM; in that of `O=C(O)c1ccc2nc(-c3ccccc3)c(-c3cccc(OC(F)(F)F)c3)nc2c1` [Example 37, 2-Phenyl-3-(3-(trifluoromethoxy)phenyl)quinoxaline-6-carboxylic acid], not above 10 µM; in that of `O=C(O)c1ccc2nc(-c3ccccc3)c(-c3ccsc3)nc2c1` [Example 43, 2-Phenyl-3-(thiophen-3-yl)quinoxaline-6-carboxylic acid], not above 10 µM.
For the molecule `O=C(O)c1ccc2nc(-c3ccccc3)c(-c3ccc4ccccc4c3)nc2c1` [Example 18, 3-(Naphthalen-2-yl)-2-phenylquinoxaline-6-carboxylic acid], the IC50 is not above 10 µM.
